{"source": "ChEMBL document CHEMBL1201862", "about": "“PubChem BioAssay data set” (2004)", "key": {"[1]": {"biological_target": "T1, Zinc finger protein mex-5 (Caenorhabditis elegans, UniProt Q9XUB2)", "T1 sequence (Q9XUB2 whole entry)": "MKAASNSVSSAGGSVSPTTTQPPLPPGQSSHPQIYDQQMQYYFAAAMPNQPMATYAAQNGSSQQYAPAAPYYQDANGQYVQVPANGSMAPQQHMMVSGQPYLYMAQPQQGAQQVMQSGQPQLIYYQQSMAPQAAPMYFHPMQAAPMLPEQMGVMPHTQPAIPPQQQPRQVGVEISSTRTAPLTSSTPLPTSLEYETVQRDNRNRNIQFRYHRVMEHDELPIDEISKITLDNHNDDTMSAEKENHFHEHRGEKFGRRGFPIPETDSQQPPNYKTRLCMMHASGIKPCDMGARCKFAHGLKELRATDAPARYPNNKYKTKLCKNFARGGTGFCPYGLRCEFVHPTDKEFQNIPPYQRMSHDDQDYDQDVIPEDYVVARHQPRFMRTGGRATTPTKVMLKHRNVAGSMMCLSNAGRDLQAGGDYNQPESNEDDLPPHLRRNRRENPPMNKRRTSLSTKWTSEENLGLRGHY", "test": "MEX-5/TCR-2 RNA interaction inhibitors, dose response, biochemical, C. elegans, fluorescence polarization (AID 1960)"}, "[2]": {"biological_target": "T2, Histone-lysine N-methyltransferase NSD2 (Homo sapiens, UniProt O96028)", "T2 sequence (O96028 whole entry)": "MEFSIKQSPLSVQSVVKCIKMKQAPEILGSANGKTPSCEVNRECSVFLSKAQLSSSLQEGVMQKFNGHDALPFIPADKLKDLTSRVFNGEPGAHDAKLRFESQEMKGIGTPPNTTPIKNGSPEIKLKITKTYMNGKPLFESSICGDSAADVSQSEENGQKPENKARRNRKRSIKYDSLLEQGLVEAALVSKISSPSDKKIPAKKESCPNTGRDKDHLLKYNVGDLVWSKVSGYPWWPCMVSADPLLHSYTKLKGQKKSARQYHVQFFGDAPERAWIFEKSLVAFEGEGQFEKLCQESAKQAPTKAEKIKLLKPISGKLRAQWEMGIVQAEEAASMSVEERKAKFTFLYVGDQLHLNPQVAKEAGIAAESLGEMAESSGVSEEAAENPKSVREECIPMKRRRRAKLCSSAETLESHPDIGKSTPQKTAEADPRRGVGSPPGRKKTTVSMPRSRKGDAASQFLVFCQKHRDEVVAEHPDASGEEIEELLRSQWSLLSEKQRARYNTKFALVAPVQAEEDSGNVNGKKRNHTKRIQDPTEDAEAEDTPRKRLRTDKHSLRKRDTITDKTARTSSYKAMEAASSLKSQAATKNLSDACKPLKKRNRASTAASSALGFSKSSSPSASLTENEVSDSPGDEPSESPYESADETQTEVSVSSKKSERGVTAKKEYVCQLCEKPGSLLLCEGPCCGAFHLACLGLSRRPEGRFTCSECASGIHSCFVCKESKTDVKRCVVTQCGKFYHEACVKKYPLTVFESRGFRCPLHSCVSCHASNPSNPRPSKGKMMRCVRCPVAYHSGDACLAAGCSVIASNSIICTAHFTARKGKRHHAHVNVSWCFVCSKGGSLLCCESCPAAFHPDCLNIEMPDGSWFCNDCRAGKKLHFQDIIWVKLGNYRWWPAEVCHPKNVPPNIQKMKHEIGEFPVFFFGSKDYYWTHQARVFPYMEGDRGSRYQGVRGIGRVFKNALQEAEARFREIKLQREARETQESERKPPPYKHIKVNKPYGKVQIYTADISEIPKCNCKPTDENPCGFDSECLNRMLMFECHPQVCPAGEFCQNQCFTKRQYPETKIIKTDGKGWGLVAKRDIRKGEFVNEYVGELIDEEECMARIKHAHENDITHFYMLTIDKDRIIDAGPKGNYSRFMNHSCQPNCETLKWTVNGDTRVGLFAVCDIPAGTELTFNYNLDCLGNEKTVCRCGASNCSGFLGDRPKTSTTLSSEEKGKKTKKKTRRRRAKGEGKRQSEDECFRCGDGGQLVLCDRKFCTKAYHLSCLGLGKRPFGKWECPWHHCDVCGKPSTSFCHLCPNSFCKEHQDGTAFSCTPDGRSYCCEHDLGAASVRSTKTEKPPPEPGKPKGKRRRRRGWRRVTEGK", "type": "biochemical"}, "[3]": {"biological_target": "T3, Bifunctional protein GlmU (Mycobacterium tuberculosis, UniProt P9WMN3)", "T3 sequence (P9WMN3 whole entry)": "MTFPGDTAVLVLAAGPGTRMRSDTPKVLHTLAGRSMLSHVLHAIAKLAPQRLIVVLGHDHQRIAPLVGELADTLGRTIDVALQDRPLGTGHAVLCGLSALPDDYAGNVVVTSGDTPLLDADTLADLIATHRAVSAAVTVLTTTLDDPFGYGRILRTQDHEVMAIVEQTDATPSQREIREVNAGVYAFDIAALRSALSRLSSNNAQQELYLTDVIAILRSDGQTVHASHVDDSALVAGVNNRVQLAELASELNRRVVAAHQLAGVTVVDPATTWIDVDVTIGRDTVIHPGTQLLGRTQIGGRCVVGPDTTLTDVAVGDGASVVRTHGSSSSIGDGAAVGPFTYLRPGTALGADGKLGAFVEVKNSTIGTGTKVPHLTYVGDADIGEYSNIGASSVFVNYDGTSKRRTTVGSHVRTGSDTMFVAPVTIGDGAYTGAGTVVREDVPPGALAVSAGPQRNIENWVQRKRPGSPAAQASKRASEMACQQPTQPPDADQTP", "test": "Inhibitors of Mycobacterial Glucosamine-1-phosphate acetyl transferase (GlmU). Secondary screen.", "design": "species or system Mycobacterium tuberculosis H37Rv"}, "[4]": {"biological_target": "T4, Carboxy-terminal domain RNA polymerase II polypeptide A small phosphatase 1 (Homo sapiens, UniProt Q9GZU7)", "T4 sequence (Q9GZU7 whole entry)": "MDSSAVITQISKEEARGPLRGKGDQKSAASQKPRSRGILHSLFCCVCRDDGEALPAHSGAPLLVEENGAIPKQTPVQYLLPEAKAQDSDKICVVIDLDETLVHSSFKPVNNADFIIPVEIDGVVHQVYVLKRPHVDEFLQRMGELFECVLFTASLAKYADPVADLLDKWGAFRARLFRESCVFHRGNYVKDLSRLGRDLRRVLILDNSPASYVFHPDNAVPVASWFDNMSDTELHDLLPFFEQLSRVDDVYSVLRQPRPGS", "test": "inhibitors of CTDSP1, concentration-response testing, biochemical assay, absorbance-based, actives from ultra-high-throughput screening (AID 540297)", "type": "functional"}, "[5]": {"biological_target": "T5, RNA-binding protein pos-1 (Caenorhabditis elegans, UniProt G5EF15)", "T5 sequence (G5EF15 whole entry)": "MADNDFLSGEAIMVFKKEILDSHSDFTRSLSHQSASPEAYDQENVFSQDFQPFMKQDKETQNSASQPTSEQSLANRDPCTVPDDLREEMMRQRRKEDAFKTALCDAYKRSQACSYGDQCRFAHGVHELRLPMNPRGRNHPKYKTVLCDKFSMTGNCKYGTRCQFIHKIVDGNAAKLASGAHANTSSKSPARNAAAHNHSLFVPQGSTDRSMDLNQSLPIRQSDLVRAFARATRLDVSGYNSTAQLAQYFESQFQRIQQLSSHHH", "test": "inhibitors of POS-1/mex-3 RNA binding, dose response, biochemical, fluorescence polarization (AID 1964);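 further: purified POS-1 fused to maltose binding protein made in E. coli; potency of compounds blocking POS-1 binding to fluorescent RNA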"}, "[6]": {"test": "HepG2 cell cytotoxicity, dose response, cytotoxicity control, plate reader, cherry-pick, antagonist series (AID 743416)", "type": "functional, cell-based"}, "[7]": {"test": "MC4R antagonists, dose response, counter-screen for LGR2 antagonist project, cell-based, plate reader, cherry pick (AID 743444);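 further: transfected HEK 293 cells stimulated with alpha-MSH peptide; potency of inhibitors of the alpha-MSH evoked signal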", "type": "functional"}, "[8]": {"test": "A549 cell cytotoxicity, dose response, cytotoxicity control, plate reader, cherry-pick, antagonist series (AID 743412)", "type": "functional, cell-based"}, "[9]": {"test": "LGR2 antagonists, dose response, cell-based, HEK293, CRE-luciferase reporter, cherry pick, set 2 (AID 743343);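 further: transfected cells were stimulated with diluted bursicon conditioned medium after compound addition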", "type": "functional"}, "Prothrombin": {"biological_target": "Prothrombin (Homo sapiens, UniProt P00734)", "test": "Thrombin 1536 HTS Dose Response Confirmation. [Related pubchem assays: 1046 (Thrombin 1536 HTS; hits were confirmed in this assay)]", "type": "functional"}, "[10]": {"test": "cytotoxicity toward DRD oncogenic fibroblasts, dose response, cell-based, non-viral oncogenic, luminescence (AID 1934)", "type": "functional", "settings": "Homo sapiens"}, "BJ [11]": {"system": "BJ", "test": "cytotoxicity toward BJ-TERT fibroblasts, dose response, cell-based, RAS-independent, luminescence (AID 1933)", "type": "functional", "settings": "Homo sapiens"}, "BJ [12]": {"system": "BJ", "test": "cytotoxicity toward BJ-TERT-LT-ST fibroblasts, dose response, cell-based, RAS-independent, luminescence (AID 1935);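 further: BJ fibroblasts immortalized with TERT plus LT and ST oncogenes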", "type": "functional", "settings": "Homo sapiens"}, "[13]": {"test": "non-specific cell cytotoxicity, dose response, cytotoxicity control for PAX8 inhibitor project, plate reader, dry powder samples (AID 743021)", "type": "functional, cell-based"}, "Paired box protein Pax-8": {"biological_target": "Paired box protein Pax-8 (Homo sapiens, UniProt Q06710)", "sequence (Q06710 whole entry)": "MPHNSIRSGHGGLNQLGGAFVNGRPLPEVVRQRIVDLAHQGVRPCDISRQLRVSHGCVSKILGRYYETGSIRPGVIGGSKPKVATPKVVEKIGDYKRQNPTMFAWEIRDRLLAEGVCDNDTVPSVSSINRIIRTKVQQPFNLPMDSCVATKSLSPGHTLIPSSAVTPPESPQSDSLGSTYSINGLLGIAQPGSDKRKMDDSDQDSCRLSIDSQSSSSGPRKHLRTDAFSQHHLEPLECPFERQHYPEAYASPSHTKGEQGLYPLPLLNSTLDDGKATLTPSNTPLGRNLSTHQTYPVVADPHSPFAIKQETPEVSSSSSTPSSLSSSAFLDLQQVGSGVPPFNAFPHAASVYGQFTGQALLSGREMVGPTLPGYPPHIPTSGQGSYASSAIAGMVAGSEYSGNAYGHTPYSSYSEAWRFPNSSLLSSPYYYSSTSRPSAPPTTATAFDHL", "test": "inhibitors of PAX8-driven TPO luciferase reporter, dose response, RMG-I cells, cherry-pick (AID 687027);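 further: luciferase reporter driven by Pax8 target thyroperoxidase promoter measured by SteadyGlo luminescence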", "type": "functional, cell-based"}, "BJ [14]": {"system": "BJ", "test": "cells", "type": "functional, cell-based", "settings": "Homo sapiens"}, "[15]": {"test": "ADAM10 protease inhibitors, dose response, selectivity assay for ADAM17 exosite inhibitor project, biochemical, FRET peptide substrate, recombinant human ADAM10 (AID 743259);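 further: ADAM10 enzyme cleaving a FRET peptide substrate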"}, "[16]": {"test": "Luminescence-based cell-based high throughput dose response assay to identify activators of the DAF-12 from the parasite S. stercoralis (ssDAF-12).", "type": "functional"}, "[17]": {"biological_target": "T6, Oxysterols receptor LXR-beta (Homo sapiens, UniProt P55055)", "T6 sequence (P55055 whole entry)": "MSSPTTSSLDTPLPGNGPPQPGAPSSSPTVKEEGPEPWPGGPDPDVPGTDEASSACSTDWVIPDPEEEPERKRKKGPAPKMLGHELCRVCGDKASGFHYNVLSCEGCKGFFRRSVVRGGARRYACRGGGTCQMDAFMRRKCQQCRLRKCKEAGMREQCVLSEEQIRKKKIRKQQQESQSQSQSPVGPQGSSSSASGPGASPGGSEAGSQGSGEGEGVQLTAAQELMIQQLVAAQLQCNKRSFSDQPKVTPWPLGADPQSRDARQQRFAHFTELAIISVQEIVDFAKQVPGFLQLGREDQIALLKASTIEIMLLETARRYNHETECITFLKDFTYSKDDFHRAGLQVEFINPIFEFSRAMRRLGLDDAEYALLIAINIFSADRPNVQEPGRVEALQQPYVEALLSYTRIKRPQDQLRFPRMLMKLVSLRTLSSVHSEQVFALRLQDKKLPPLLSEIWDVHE", "test": "LXR agonists, Gal4 luciferase reporter, dose response, counter-screen for ssDAF-12 agonist project, cell-based, luminescence, HEK293, S. stercoralis campaign (AID 720737)", "type": "functional", "settings": "read-out: IC50 (the source's name)"}}, "note": "The source made the active and inactive calls."}
{"smiles": "CC(=O)NC1=NC(=O)/C(=C/c2cc(C)n(-c3cccc(C(=O)O)c3)c2C)S1", "values": [{"measurement": "EC50", "setting": "[1]", "result": "> 300 µM (inconclusive)"}, {"measurement": "AC50", "setting": "[2]", "result": "9.13 µM (active)"}, {"measurement": "IC50", "setting": "[3]", "result": "93.8 µM (active)"}, {"measurement": "IC50", "setting": "[4]", "result": "4.31 µM (active)"}, {"measurement": "EC50", "setting": "[5]", "result": "> 300 µM (not active)"}]}
{"smiles": "O=C(O)c1cccc(-c2nc3ccccc3[nH]2)c1", "values": [{"measurement": "AC50", "setting": "[6]", "result": "> 52 µM (inactive)"}, {"measurement": "AC50", "setting": "[7]", "result": "1.5 µM (active)"}, {"measurement": "AC50", "setting": "[8]", "result": "> 52 µM (inactive)"}, {"measurement": "AC50", "setting": "[9]", "result": "1.54 µM (active)"}]}
{"smiles": "Cc1ccc(S(=O)(=O)/N=C/c2ccco2)cc1", "values": [{"measurement": "IC50", "setting": "Prothrombin", "result": "> 50 µM (not active)"}]}
{"smiles": "O=C(NC1CCCCC1)C(c1cccnc1)N(C(=O)CCl)c1ccccc1Cl", "note": "(stereo unspecified)", "values": [{"measurement": "EC50", "setting": "[10]", "result": "37.3 µM (active)"}, {"measurement": "EC50", "setting": "BJ [11]", "result": "3.94 µM (inconclusive)"}, {"measurement": "EC50", "setting": "BJ [12]", "result": "> 150 µM (not active)"}, {"measurement": "AC50", "setting": "[13]", "result": "11.2 µM (active)"}, {"measurement": "AC50", "setting": "Paired box protein Pax-8", "result": "6.05 µM (active)"}, {"measurement": "EC50", "setting": "BJ [14]", "result": "> 150 µM (not active)"}]}
{"smiles": "Sc1n[nH]c(-c2sccc2OCc2ccc(Cl)cc2Cl)n1", "values": [{"measurement": "IC50", "setting": "[15]", "result": "> 69.5 µM (inactive)"}]}
{"smiles": "Cc1onc(-c2ccccc2)c1C(=O)OCC(=O)c1ccc(F)cc1", "values": [{"measurement": "IC50", "setting": "[16]", "result": "> 67.5 µM (inactive)"}, {"measurement": "EC50", "setting": "[17]", "result": "> 67.5 µM (inactive)"}]}
{"smiles": "CN(/N=C/c1cccnc1)c1cnc2ccccc2n1", "values": [{"measurement": "IC50", "setting": "[16]", "result": "> 67.5 µM (inactive)"}, {"measurement": "EC50", "setting": "[17]", "result": "> 67.5 µM (inactive)"}]}
